Patent US9556179B2 (BRISTOL-MYERS SQUIBB COMPANY, priority 2012, dated 2017)

Legend:
CK1ε = CK1ε (Homo sapiens (Human), UniProt P49674); assay: CK1ε kinase assay (Caliper LABCHIP electrophoretic separation of fluoresceinated peptide substrate and product); format: biochemical; settings: 200 pM enzyme, 50 μM ATP, 22 hours at room temperature
Summary of the method: (§1)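 Reactions ran 22 hours at room temperature and were stopped with EDTA. Phosphorylated product and unphosphorylated substrate were then separated electrophoretically. Compounds were tested at eleven concentrations, and IC50 values came from non-linear regression.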

CK1δ = CK1δ (Homo sapiens (Human), UniProt P48730); assay: CK1δ kinase assay (Caliper LABCHIP electrophoretic separation of fluoresceinated peptide substrate and product); format: biochemical; settings: 200 pM enzyme, 50 μM ATP, 22 hours at room temperature
Summary of the method: as §1

CK1ε, sequence (P49674 whole entry): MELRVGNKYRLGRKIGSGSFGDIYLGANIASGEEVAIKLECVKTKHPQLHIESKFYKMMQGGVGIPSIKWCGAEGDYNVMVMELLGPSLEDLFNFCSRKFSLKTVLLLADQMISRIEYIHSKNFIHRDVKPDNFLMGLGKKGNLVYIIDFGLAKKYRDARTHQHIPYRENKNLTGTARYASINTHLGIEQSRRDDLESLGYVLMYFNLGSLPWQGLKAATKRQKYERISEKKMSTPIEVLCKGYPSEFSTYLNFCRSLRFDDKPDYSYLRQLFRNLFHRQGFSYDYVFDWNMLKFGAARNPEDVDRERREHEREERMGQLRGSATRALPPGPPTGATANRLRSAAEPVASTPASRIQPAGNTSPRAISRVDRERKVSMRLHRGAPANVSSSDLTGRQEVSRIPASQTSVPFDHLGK
CK1δ, sequence (P48730 whole entry): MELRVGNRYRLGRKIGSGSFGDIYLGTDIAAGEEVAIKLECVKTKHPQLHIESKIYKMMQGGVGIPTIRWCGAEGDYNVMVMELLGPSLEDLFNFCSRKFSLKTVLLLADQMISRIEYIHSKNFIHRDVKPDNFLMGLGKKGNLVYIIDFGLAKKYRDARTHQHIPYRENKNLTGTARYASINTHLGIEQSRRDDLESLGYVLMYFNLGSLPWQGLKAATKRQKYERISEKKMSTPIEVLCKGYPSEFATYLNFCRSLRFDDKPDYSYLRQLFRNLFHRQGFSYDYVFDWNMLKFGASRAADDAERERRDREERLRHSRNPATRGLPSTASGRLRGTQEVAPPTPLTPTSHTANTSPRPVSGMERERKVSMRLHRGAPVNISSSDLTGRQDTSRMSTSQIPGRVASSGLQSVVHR

| Structure (SMILES) | IC50 (CK1ε) [nM] | IC50 (CK1δ) [nM] |
| --- | --- | --- |
| Cc1nc(-c2ccc(F)cc2)c(-c2ccc3nc(NC(=O)c4cnn[nH]4)cn3n2)n1C [Compound 370, N-(6-(4-(4-fluorophenyl)-1,2-dimethyl-1H-imidazol-5-yl)imidazo[1,2-b]pyridazin-2-yl)-1H-1,2,3-trizole-4-carboxamide] | 16.2 | 1.12 |
| Cc1nc(C(=O)Nc2cn3nc(-c4c(-c5ccc(F)cc5)nc(C)n4C)ccc3n2)co1 [Compound 371, N-(6-(4-(4-fluorophenyl)-1,2-dimethyl-1H-imidazol-5-yl)imidazo[1,2-b]pyridazin-2-yl)-2-methyl-1,3-oxazole-4-carboxamide] | 19.8 | 2.5 |
| Cc1nc(C(=O)Nc2cn3nc(-c4c(-c5ccc(F)cc5)nc(C)n4C)ccc3n2)c[nH]1 [Compound 372, N-(6-(4-(4-fluorophenyl)-1,2-dimethyl-1H-imidazol-5-yl)imidazo[1,2-b]pyridazin-2-yl)-2-methyl-1H-imidazole-4-carboxamide] | 28.3 | 2.19 |
| Cc1nc(-c2ccc(F)cc2)c(-c2ccc3nc(NC(=O)c4ncc[nH]4)cn3n2)n1C [Compound 373, N-(6-(4-(4-fluorophenyl)-1,2-dimethyl-1H-imidazol-5-yl)imidazo[1,2-b]pyridazin-2-yl)-1H-imidazole-2-carboxamide] | 176 | 18.5 |
| Cc1nc(-c2ccc(F)cc2)c(-c2ccc3nc(NC(=O)c4ccc(C#N)nc4)cn3n2)n1C [Compound 374, 6-cyano-N-(6-(4-(4-fluoro-phenyl)-1,2-dimethyl-1H-imidazol-5-yl)imidazo[1,2-b]pyridazin-2-yl)nicotinamide] | 3.95 | 0.399 |
| Cc1nc(-c2ccc(F)cc2)c(-c2ccc3nc(NC(=O)c4ccon4)cn3n2)n1C [Compound 375, N-(6-(4-(4-fluorophenyl)-1,2-dimethyl-1H-imidazol-5-yl)imidazo[1,2-b]pyridazin-2-yl)-3-isoxazolecarboxamide] | 16.3 | 1.91 |
| Cc1nc(-c2ccc(F)cc2)c(-c2ccc3nc(NC(=O)[C@@H]4CCC(=O)N4)cn3n2)n1C [Compound 376, N-(6-(4-(4-fluorophenyl)-1,2-dimethyl-1H-imidazol-5-yl)imidazo[1,2-b]pyridazin-2-yl)-5-oxo-L-prolinamide] | 78.1 | 8.88 |
| Cc1n[nH]cc1C(=O)Nc1cn2nc(-c3c(-c4ccc(F)cc4)nc(C)n3C)ccc2n1 [Compound 377, N-(6-(4-(4-fluorophenyl)-1,2-dimethyl-1H-imidazol-5-yl)imidazo[1,2-b]pyridazin-2-yl)-3-methyl-1H-pyrazole-4-carboxamide] | 4.04 | 0.656 |
| Cc1nc(-c2ccc(F)cc2)c(-c2ccc3nc(NC(=O)c4cnoc4)cn3n2)n1C [Compound 378, N-(6-(4-(4-fluorophenyl)-1,2-dimethyl-1H-imidazol-5-yl)imidazo[1,2-b]pyridazin-2-yl)-4-isoxazolecarboxamide] | 60 | 6.19 |
| Cc1cc(C(=O)Nc2cn3nc(-c4c(-c5ccc(F)cc5)nc(C)n4C)ccc3n2)on1 [Compound 379, N-(6-(4-(4-fluorophenyl)-1,2-dimethyl-1H-imidazol-5-yl)imidazo[1,2-b]pyridazin-2-yl)-3-methyl-5-isoxazole-carboxamide] | 4.94 | 0.569 |
| Cc1nc(-c2ccc(F)cc2)c(-c2ccc3nc(NC(=O)c4cnc[nH]4)cn3n2)n1C [Compound 380, N-(6-(4-(4-fluorophenyl)-1,2-dimethyl-1H-imidazol-5-yl)imidazo[1,2-b]pyridazin-2-yl)-1H-imidazole-5-carboxamide] | 36.1 | 5.23 |
| Cc1c(C(=O)Nc2cn3nc(-c4c(-c5ccc(F)cc5)nc(C)n4C)ccc3n2)cnn1C [Compound 381, N-(6-(4-(4-fluorophenyl)-1,2-dimethyl-1H-imidazol-5-yl)imidazo[1,2-b]pyridazin-2-yl)-1,5-dimethyl-1H-pyrazole-4-carboxamide] | 3.74 | 0.754 |
| Cc1cc(C(=O)Nc2cn3nc(-c4c(-c5ccc(F)cc5)nc(C)n4C)ccc3n2)on1 [Compound 382, N-(6-(4-(4-fluorophenyl)-1,2-dimethyl-1H-imidazol-5-yl)imidazo[1,2-b]pyridazin-2-yl)-3-methyl-5-isoxazole-carboxamide] | 103 | 21.9 |
| Cc1nc(-c2ccc(F)cc2)c(-c2ccc3nc(NC(=O)c4ncccn4)cn3n2)n1C [Compound 383, N-(6-(4-(4-fluorophenyl)-1,2-dimethyl-1H-imidazol-5-yl)imidazo[1,2-b]pyridazin-2-yl)pyrimidine-2-carboxamide] | 17.3 | 6.34 |
| Cc1nc(-c2ccc(F)cc2)c(-c2ccc3nc(NC(=O)c4ccncn4)cn3n2)n1C [Compound 384, N-(6-(4-(4-fluorophenyl)-1,2-dimethyl-1H-imidazol-5-yl)imidazo[1,2-b]pyridazin-2-yl)pyrimidine-4-carboxamide] | 29.1 | 8.51 |
| Cc1nc(-c2ccc(F)cc2)c(-c2ccc3nc(NC(=O)c4cccnn4)cn3n2)n1C [Compound 386, N-(6-(4-(4-fluorophenyl)-1,2-dimethyl-1H-imidazol-5-yl)imidazo[1,2-b]pyridazin-2-yl)pyridazine-3-carboxamide] | 55.1 | 10.5 |
| Cc1nc(-c2ccc(F)cc2)c(-c2ccc3nc(NC(=O)c4cnccn4)cn3n2)n1C [Compound 388, N-(6-(4-(4-fluorophenyl)-1,2-dimethyl-1H-imidazol-5-yl)imidazo[1,2-b]pyridazin-2-yl)pyrazine-2-carboxamide] | 19.4 | 7.12 |
| Cc1nc(-c2ccc(F)cc2)c(-c2ccc3nc(NC(=O)c4cc(-c5ccc(F)cc5)ncn4)cn3n2)n1C [Compound 389] | 270 | 35.2 |
| Cc1nc(-c2ccc(F)cc2)c(-c2ccc3nc(NC(=O)c4cnc(-c5ccncc5)s4)cn3n2)n1C [Compound 390, N-(6-(4-(4-fluorophenyl)-1,2-dimethyl-1H-imidazol-5-yl)imidazo[1,2-b]pyridazin-2-yl)-2-(pyridin-4-yl)thiazole-5-carboxamide] | 32.6 | 7.2 |
| Cc1nc(-c2ccc(F)cc2)c(-c2ccc3nc(NC(=O)c4ccnnc4)cn3n2)n1C [Compound 391, N-(6-(4-(4-fluorophenyl)-1,2-dimethyl-1H-imidazol-5-yl)imidazo[1,2-b]pyridazin-2-yl)pyridazine-4-carboxamide] | 10.5 | 4.45 |
| Cc1nc(-c2ccc(F)cc2)c(-c2ccc3nc(NC(=O)c4ccccc4CN(C)C)cn3n2)n1C [Compound 392, 2-((dimthylamino)methyl)-N-(6-(4-(4-fluorophenyl)-1,2-dimethyl-1H-imidazol-5-yl)imidazo[1,2-b]pyridazin-2-yl)benzamide] | 54.5 | 16.7 |
| Cc1nc(-c2ccc(F)cc2)c(-c2ccc3nc(NC(=O)c4cccc(CN5CCCC5)c4)cn3n2)n1C [Compound 394, N-(6-(4-(4-fluorophenyl)-1,2-dimethyl-1H-imidazol-5-yl)imidazo[1,2-b]pyridazin-2-yl)-3-(pyrrolidin-1-ylmethyl) benzamide] | 15.3 | 6.81 |
| Cc1nc(-c2ccc(F)cc2)c(-c2ccc3nc(NC(=O)c4ccc(CN5CCCC5)cc4)cn3n2)n1C [Compound 395, N-(6-(4-(4-fluorophenyl)-1,2-dimethyl-1H-imidazol-5-yl)imidazo[1,2-b]pyridazin-2-yl)-4-(pyrrolidin-1-ylmethyl) benzamide] | 10.6 | 5.46 |
| Cc1nc(-c2ccc(F)cc2)c(-c2ccc3nc(NC(=O)c4cncs4)cn3n2)n1C [Compound 396, N-(6-(4-(4-fluorophenyl)-1,2-dimethyl-1H-imidazol-5-yl)imidazo[1,2-b]pyridazin-2-yl)thiazole-5-carboxamide] | 4.41 | 3.88 |
| Cc1nc(-c2ccc(F)cc2)c(-c2ccc3nc(NC(=O)c4ccncc4F)cn3n2)n1C [Compound 397, 3-fluoro-N-(6-(4-(4-fluoro-phenyl)-1,2-dimethyl-1H-imidazol-5-yl)imidazo[1,2-b]pyridazin-2-yl)isonicotin-amide] | 6.65 | 2.74 |
| Cc1nc(-c2ccc(F)cc2)c(-c2ccc3nc(NC(=O)c4ccc(Cl)cc4F)cn3n2)n1C [Compound 398, 4-chloro-2-fluoro-N-(6-(4-(4-fluorophenyl)-1,2-dimethyl-1H-imidazol-5-yl)imidazo[1,2-b]pyridazin-2-yl) benzamide] | 2.7 | 0.66 |
| Cc1nc(-c2ccc(F)cc2)c(-c2ccc3nc(NC(=O)c4ccccc4F)cn3n2)n1C [Compound 399, 2-fluoro-N-(6-(4-(4-fluoro-phenyl)-1,2-dimethyl-1H-imidazol-5-yl)imidazo[1,2-b]pyridazin-2-yl)benzamide] | 5.29 | 2.13 |
| Cc1nc(-c2ccc(F)cc2)c(-c2ccc3nc(NC(=O)c4cc(C(C)(C)C)ncn4)cn3n2)n1C [Compound 400, 6-(tert-butyl)-N-(6-(4-(4-fluorophenyl)-1,2-dimethyl-1H-imidazol-5-yl)imidazo[1,2-b]pyridazin-2-yl) pyrimidine-4-carboxamide] | 23.3 | 6.76 |
| Cc1cc(C)c(-c2cccnc2)cc1C(=O)Nc1cn2nc(-c3c(-c4ccc(F)cc4)nc(C)n3C)ccc2n1 [Compound 402, N-(6-(4-(4-Fluorophenyl)-1,2-dimethyl-1H-imidazol-5-yl)imidazo[1,2-b]pyridazin-2-yl)-2,4-dimethyl-5-(pyridin-3-yl)benzamide] | 7.47 | 0.463 |
| Cc1c(C(=O)Nc2cn3nc(-c4c(-c5ccc(F)cc5)nc(C)n4C)ccc3n2)cccc1-c1cccnc1 [Compound 403, N-(6-(4-(4-Fluorophenyl)-1,2-dimethyl-1H-imidazol-5-yl)imidazo[1,2-b]pyridazin-2-yl)-2-methyl-3-(pyridin-3-yl)benzamide] | 1.61 | 0.582 |
